From patent US20130260025A1, “Group 2 Imidazolate Formulations for Direct Liquid Injection” (AIR PRODUCTS AND CHEMICALS, INC., priority 2012, published 2013)

Assays:
[1] = Solubility of strontium imidazolate adducts in mesitylene; format: physicochemical
Source text: A fixed volume of the solution was then weighed. […] […].

[2] = Solubility of strontium imidazolate adducts in cyclooctane
Protocol: Solubility was determined by taking a weighed amount of solvent at room temperature, incrementally adding metal complex with mixing until not more could be dissolved then reweighing the resultant solution to permit the weight percentage of metal complex dissolved to be calculated. A fixed volume of the solution was then weighed. […] The moles of metal complex is then divided by the volume of weighed solution in liters to yield the molarity of the solution.

[3] = Thermogravimetric analysis (TGA)/differential scanning calorimetry (DSC); format: physicochemical
Protocol: Thermogravimetric analysis (TGA) of the complexes listed in Tables 1 and 2 were conducted whereby samples were suspended in a microbalance pan under a steady stream of nitrogen while being heated under a constant rate. Weight loss is measured as a function of temperature/time while a differential scanning calorimeter monitors exotherms (decomposition) or endotherms (phase change/melting or evaporative cooling).

[4] = saturated solution in mesitylene, room temperature
[5] = saturated solution in cyclooctane, room temperature

Structure (SMILES)	Molarity of strontium complex [1, 4]	Wt % of strontium complex [1, 4]	Molarity of strontium complex [2, 5]	Wt % of strontium complex [2, 5]	Wt % of strontium complex [1]	times more soluble in mesitylene than parent complex [1]	Molarity of strontium complex [2]	Wt % of strontium complex [2]	times more soluble in cyclooctane than parent complex [2]	TGA residual mass [3]	Molarity of strontium complex [1]	temperature at which weight loss associated with loss of tetrahydrofuran significantly begins ([3]; TGA under nitrogen stream, constant heating rate, FIG. 7)
CC(C)(C)c1nc(C(C)(C)C)c(C(C)(C)C)[n-]1.CC(C)(C)c1nc(C(C)(C)C)c(C(C)(C)C)[n-]1.CN(C)CCN(C)C.[Sr+2] [Strontium bis(2,4,5-tri-tert-butylimidazolate)(tetramethylethlenediamine)]	0.041 M	3.3 Wt %	0.02 M	1.8 Wt %								
C1=CCOC1.CC(C)(C)c1nc(C(C)(C)C)c(C(C)(C)C)[n-]1.CC(C)(C)c1nc(C(C)(C)C)c(C(C)(C)C)[n-]1.[Sr+2] [Strontium bis(2,4,5-tri-tert-butylimidazolate)(2,5-dihydrofuran)]					38 Wt %	9-13 times	0.37 M	24 Wt %	11-12 times	8.09%		
CC(C)(C)c1nc(C(C)(C)C)c(C(C)(C)C)[n-]1.CC(C)(C)c1nc(C(C)(C)C)c(C(C)(C)C)[n-]1.COC(C)OC.[Sr+2] [Strontium bis(2,4,5-tri-tert-butylimidazolate)(1,1-dimethoxyethane)]	0.13 M	9.0 Wt %	0.03 M	2.1 Wt %								
CC(C)(C)c1nc(C(C)(C)C)c(C(C)(C)C)[n-]1.CC(C)(C)c1nc(C(C)(C)C)c(C(C)(C)C)[n-]1.COCC(C)OC.[Sr+2] [Strontium bis(2,4,5-tri-tert-butylimidazolate)(1,2-dimethoxypropane)]					7.3 Wt %		0.04 M	2.8 Wt %			0.093 M	
CC(C)(C)c1nc(C(C)(C)C)c(C(C)(C)C)[n-]1.CC(C)(C)c1nc(C(C)(C)C)c(C(C)(C)C)[n-]1.CC1CCOC1.[Sr+2] [Strontium bis(2,4,5-tri-tert-butylimidazolate)(3-methyltetrahydrofuran)]					28.8 Wt %	9-13 times	0.05 M	3.5 Wt %			0.44 M	
C1CCOC1.CC(C)(C)c1nc(C(C)(C)C)c(C(C)(C)C)[n-]1.CC(C)(C)c1nc(C(C)(C)C)c(C(C)(C)C)[n-]1.[Sr+2] [Strontium bis(2,4,5-tri-tert-butylimidazolatee)(tetrahydrofuran)]	0.6 M	28.2 Wt %	0.35 M	23.6 Wt %								≥ 100 °C
